Source: US20110076293A1, “TRIPTOLIDE DERIVATIVES FOR MODULATION OF APOPTOSIS AND IMMUNOSUPPRESSION” (priority 2002, published 2011)
Like-named read-outs stand apart in the source and are kept apart here.

Assays:
in vitro = settings: incomplete conversion to triptolide, 48 hr incubation
Protocol: Compounds of formula I, as shown in Table 1 above and in the Examples, were assayed for their capacity to induce apoptosis in cells from the Jurkat human T lymphocyte cell line, after incubation with pooled human serum for varying periods of time at 37° C. (see Example 19). An ester prodrug, triptolide-14-succinate, designated PG490-88, was included for comparison. The extent of conversion to triptolide after such incubation was also independently determined by HPLC analysis.
Prodrug conversions to triptolide as determined independently by HPLC are given in […].

[1] = tested on: Jurkat human T lymphocyte cell line; experiment: Apoptosis assay (Annexin V) of compounds incubated with human serum; settings: for EC50: read-out: ED50 (nM) in apoptosis assay after incubation with serum, 37° C.
Outline: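 Test compounds at 20 mM were preincubated in pooled human serum at 37° C for varying times, then serially diluted to final 1–10,000 nM. Jurkat cells (1×10^5 per well) were exposed for 24 h at 37° C, and apoptosis was scored by Annexin V-FITC flow cytometry. ED50 came from dose-response curves, and % conversion was expressed relative to the triptolide ED50 in the same serum.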

[2] = Table 3, human serum, 0 hr, 10000 nM
[3] = Table 3, human serum, 48 hr, 1 nM
[4] = Table 3, human serum, 48 hr, 3 nM
[5] = Table 3, human serum, 48 hr, 10 nM
[6] = Table 3, human serum, 48 hr, 30 nM
[7] = Table 3, human serum, 48 hr, 100 nM
[8] = Table 3, human serum, 48 hr, 300 nM
[9] = Table 3, human serum, 48 hr, 1000 nM
[10] = Table 3, human serum, 48 hr, 3000 nM
[11] = Table 3, human serum, 48 hr, 10000 nM
[12] = Table 4, serum, 48 hr, 10000 nM
[13] = Table 5, human serum (48 hrs), 1 nM
[14] = Table 5, human serum (48 hrs), 3 nM
[15] = Table 5, human serum (48 hrs), 10 nM
[16] = Table 5, human serum (48 hrs), 30 nM
[17] = Table 5, human serum (48 hrs), 100 nM
[18] = Table 5, human serum (48 hrs), 300 nM
[19] = Table 5, human serum (48 hrs), 1000 nM
[20] = Table 5, human serum (48 hrs), 3000 nM
[21] = incubation time in human serum 0.5 hours
[22] = incubation time in human serum 1 hour
[23] = incubation time in human serum 24 hours
[24] = incubation time in human serum 48 hours
[25] = after 48 hr. incubation in human serum

What does the source list for `CC(C)[C@]12O[C@H]1[C@@H]1O[C@]13[C@]1(O[C@H]1C[C@H]1C4=C(CC[C@@]13C)C(=O)OC4)[C@@H]2OC(=O)CCC(=O)O` [PG490-88, triptolide-14-succinate, reference compound]?
max. conversion at 48 hr in human plasma by HPLC (in vitro): max. 26%; % apoptotic cells at given concentration (nM) [1, 2]: 89.2%; % apoptotic cells at given concentration (nM) [1, 3]: 7.8%; % apoptotic cells at given concentration (nM) [1, 4]: 8.1%; % apoptotic cells at given concentration (nM) [1, 5]: 7.8%; % apoptotic cells at given concentration (nM) [1, 6]: 9.1%; % apoptotic cells at given concentration (nM) [1, 7]: 51.5%; % apoptotic cells at given concentration (nM) [1, 8]: 92.1%; % apoptotic cells at given concentration (nM) [1, 9]: 93.9%; % apoptotic cells at given concentration (nM) [1, 10]: 94.1%; % apoptotic cells at given concentration (nM) [1, 11]: 95.1%; % apoptotic cells at given concentration (nM) ([1]; Table 3, medium only, 10000 nM): 93.8%; % apoptotic cells at given concentration (nM) ([1]; Table 4, medium, 10000 nM): 89.7%; % apoptotic cells at given concentration (nM) ([1]; Table 4, serum, 0 hr, 10000 nM): 82.9%; % apoptotic cells at given concentration (nM) ([1]; Table 4, serum, 48 hr, 0.03 nM): 6.6%; % apoptotic cells at given concentration (nM) ([1]; Table 4, serum, 48 hr, 0.1 nM): 6.5%; % apoptotic cells at given concentration (nM) ([1]; Table 4, serum, 48 hr, 0.3 nM): 7.0%; % apoptotic cells at given concentration (nM) ([1]; Table 4, serum, 48 hr, 1 nM): 6.0%; % apoptotic cells at given concentration (nM) ([1]; Table 4, serum, 48 hr, 3 nM): 6.2%; % apoptotic cells at given concentration (nM) ([1]; Table 4, serum, 48 hr, 10 nM): 6.2%; % apoptotic cells at given concentration (nM) ([1]; Table 4, serum, 48 hr, 30 nM): 6.8%; % apoptotic cells at given concentration (nM) ([1]; Table 4, serum, 48 hr, 100 nM): 30.5%; % apoptotic cells at given concentration (nM) ([1]; Table 4, serum, 48 hr, 300 nM): 89.6%; % apoptotic cells at given concentration (nM) ([1]; Table 4, serum, 48 hr, 1000 nM): 92.6%; % apoptotic cells at given concentration (nM) ([1]; Table 4, serum, 48 hr, 3000 nM): 92.8%; % apoptotic cells at given concentration (nM) [1, 12]: 93.9%; % apoptotic cells at given concentration (nM) [1, 13]: 8.6%; % apoptotic cells at given concentration (nM) [1, 14]: 9.3%; % apoptotic cells at given concentration (nM) [1, 15]: 8.7%; % apoptotic cells at given concentration (nM) [1, 16]: 7.8%; % apoptotic cells at given concentration (nM) [1, 17]: 23.3%; % apoptotic cells at given concentration (nM) [1, 18]: 88.4%; % apoptotic cells at given concentration (nM) [1, 19]: 90.5%; % apoptotic cells at given concentration (nM) [1, 20]: 91.7%; % apoptotic cells at given concentration (nM) ([1]; Table 5, medium, 3000 nM): 64.8%; Conversion, as relative ED50 compared to triptolide (%) [1, 21]: 2%; Conversion, as relative ED50 compared to triptolide (%) [1, 22]: 2%; Conversion, as relative ED50 compared to triptolide (%) [1, 23]: 18%; Conversion, as relative ED50 compared to triptolide (%) [1, 24]: 43%; EC50 [1, 21]: 2580 nM; EC50 [1, 22]: 2270 nM; EC50 [1, 23]: 328 nM; EC50 [1, 24]: 147 nM

Which “% apoptotic cells at given concentration (nM)” value (shortened to “% apoptotic cells”) [1, 2] does the source give for `CCNC(=O)O[C@@H]1[C@@]2(C(C)C)O[C@H]2[C@@H]2O[C@]23[C@]12O[C@H]2C[C@H]1C2=C(CC[C@@]13C)C(=O)OC2` [PG666, Triptolide 14-Ethyl Carbamate] here?
The value was 93.6%.

And the “% apoptotic cells” value [1, 3]?
The value was 13.4%.

And the “% apoptotic cells” value [1, 4]?
Its value is 14.4%.

And the “% apoptotic cells” value [1, 5]?
The value was 14.0%.

And the “% apoptotic cells” value [1, 6]?
Its value is 10.1%.

And the “% apoptotic cells” value [1, 7]?
Its value is 11.0%.

What about the “% apoptotic cells” value [1, 8] of the same compound?
The value was 20.6%.

And the “% apoptotic cells” value [1, 9]?
The value was 91.0%.

What about the “% apoptotic cells” value [1, 10] of the same compound?
Its value is 92.9%.

And the “% apoptotic cells” value [1, 11]?
Its value is 93.5%.

And the “% apoptotic cells” value ([1]; Table 3, medium only, 10000 nM)?
The value was 94.3%.

What about the “% apoptotic cells” value ([1]; Table 4, medium, 10000 nM) of the same compound?
Its value is 92.6%.

And the “% apoptotic cells” value ([1]; Table 4, serum, 0 hr, 10000 nM)?
The value was 87.2%.

What about the “% apoptotic cells” value ([1]; Table 4, serum, 48 hr, 0.03 nM) of the same compound?
The value was 39.9%.

What about the “% apoptotic cells” value ([1]; Table 4, serum, 48 hr, 0.1 nM) of the same compound?
Its value is 40.7%.

What about the “% apoptotic cells” value ([1]; Table 4, serum, 48 hr, 0.3 nM) of the same compound?
The value was 40.8%.

What about the “% apoptotic cells” value ([1]; Table 4, serum, 48 hr, 1 nM) of the same compound?
Its value is 41.3%.

What about the “% apoptotic cells” value ([1]; Table 4, serum, 48 hr, 3 nM) of the same compound?
Its value is 39.8%.

What about the “% apoptotic cells” value ([1]; Table 4, serum, 48 hr, 10 nM) of the same compound?
Its value is 39.8%.

And the “% apoptotic cells” value ([1]; Table 4, serum, 48 hr, 30 nM)?
The value was 39.1%.

What about the “% apoptotic cells” value ([1]; Table 4, serum, 48 hr, 100 nM) of the same compound?
Its value is 40.2%.

And the “% apoptotic cells” value ([1]; Table 4, serum, 48 hr, 300 nM)?
The value was 44.5%.

And the “% apoptotic cells” value ([1]; Table 4, serum, 48 hr, 1000 nM)?
The value was 88.6%.

What about the “% apoptotic cells” value ([1]; Table 4, serum, 48 hr, 3000 nM) of the same compound?
Its value is 96.8%.

And the “% apoptotic cells” value [1, 12]?
Its value is 92.3%.

What about the “% apoptotic cells” value [1, 13] of the same compound?
The value was 9.8%.

What about the “% apoptotic cells” value [1, 14] of the same compound?
Its value is 10.9%.

What about the “% apoptotic cells” value [1, 15] of the same compound?
Its value is 10.4%.

And the “% apoptotic cells” value [1, 16]?
Its value is 10.2%.

What about the “% apoptotic cells” value [1, 17] of the same compound?
Its value is 9.5%.

And the “% apoptotic cells” value [1, 18]?
The value was 14.9%.

What about the “% apoptotic cells” value [1, 19] of the same compound?
The value was 87.7%.

And the “% apoptotic cells” value [1, 20]?
The value was 91.0%.

And the “% apoptotic cells” value ([1]; Table 5, medium, 1 nM)?
Its value is 13.9%.

And the “% apoptotic cells” value ([1]; Table 5, medium, 3 nM)?
Its value is 13.1%.

And the “% apoptotic cells” value ([1]; Table 5, medium, 10 nM)?
Its value is 13.4%.

And the “% apoptotic cells” value ([1]; Table 5, medium, 30 nM)?
Its value is 13.0%.

And the “% apoptotic cells” value ([1]; Table 5, medium, 100 nM)?
The value was 13.2%.

What about the “% apoptotic cells” value ([1]; Table 5, medium, 300 nM) of the same compound?
Its value is 14.2%.

And the “% apoptotic cells” value ([1]; Table 5, medium, 1000 nM)?
Its value is 14.1%.

What about the “% apoptotic cells” value ([1]; Table 5, medium, 3000 nM) of the same compound?
Its value is 92.1%.

And the “apoptotic activity (in words)” value [1, 25]?
The value was “more active than PG688”.

What about the “concentration for equal apoptotic activity relative to PG490 (triptolide)” value [1, 25] of the same compound?
Its value is about 10 fold.

What does the source list for `CC(C)[C@]12O[C@H]1[C@@H]1O[C@]13[C@]1(O[C@H]1C[C@H]1C4=C(CC[C@@]13C)C(=O)OC4)[C@@H]2O` [PG490, Triptolide]?
% apoptotic cells at given concentration (nM) [1, 2]: 94.9%; % apoptotic cells at given concentration (nM) [1, 3]: 8.5%; % apoptotic cells at given concentration (nM) [1, 4]: 8.5%; % apoptotic cells at given concentration (nM) [1, 5]: 8.5%; % apoptotic cells at given concentration (nM) [1, 6]: 26.2%; % apoptotic cells at given concentration (nM) [1, 7]: 91.7%; % apoptotic cells at given concentration (nM) [1, 8]: 93.4%; % apoptotic cells at given concentration (nM) [1, 9]: 94.6%; % apoptotic cells at given concentration (nM) [1, 10]: 95.2%; % apoptotic cells at given concentration (nM) [1, 11]: 95.4%; % apoptotic cells at given concentration (nM) ([1]; Table 3, medium only, 10000 nM): 96.5%; % apoptotic cells at given concentration (nM) ([1]; Table 4, medium, 10000 nM): 93.4%; % apoptotic cells at given concentration (nM) ([1]; Table 4, serum, 0 hr, 10000 nM): 92.1%; % apoptotic cells at given concentration (nM) ([1]; Table 4, serum, 48 hr, 0.03 nM): 7.0%; % apoptotic cells at given concentration (nM) ([1]; Table 4, serum, 48 hr, 0.1 nM): 6.9%; % apoptotic cells at given concentration (nM) ([1]; Table 4, serum, 48 hr, 0.3 nM): 6.8%; % apoptotic cells at given concentration (nM) ([1]; Table 4, serum, 48 hr, 1 nM): 6.4%; % apoptotic cells at given concentration (nM) ([1]; Table 4, serum, 48 hr, 3 nM): 7.0%; % apoptotic cells at given concentration (nM) ([1]; Table 4, serum, 48 hr, 10 nM): 7.1%; % apoptotic cells at given concentration (nM) ([1]; Table 4, serum, 48 hr, 30 nM): 29.4%; % apoptotic cells at given concentration (nM) ([1]; Table 4, serum, 48 hr, 100 nM): 90.9%; % apoptotic cells at given concentration (nM) ([1]; Table 4, serum, 48 hr, 300 nM): 93.0%; % apoptotic cells at given concentration (nM) ([1]; Table 4, serum, 48 hr, 1000 nM): 93.2%; % apoptotic cells at given concentration (nM) ([1]; Table 4, serum, 48 hr, 3000 nM): 94.6%; % apoptotic cells at given concentration (nM) [1, 12]: 94.2%; % apoptotic cells at given concentration (nM) [1, 13]: 8.8%; % apoptotic cells at given concentration (nM) [1, 14]: 8.5%; % apoptotic cells at given concentration (nM) [1, 15]: 8.6%; % apoptotic cells at given concentration (nM) [1, 16]: 15.9%; % apoptotic cells at given concentration (nM) [1, 17]: 86.5%; % apoptotic cells at given concentration (nM) [1, 18]: 90.7%; % apoptotic cells at given concentration (nM) [1, 19]: 91.7%; % apoptotic cells at given concentration (nM) [1, 20]: 93.1%; % apoptotic cells at given concentration (nM) ([1]; Table 5, medium, 3000 nM): 93.7%
